According to PMC8597786 (Antimicrobial Agents and Chemotherapy, 2021):
Where two headings read alike, the source gives them in different places.

How the values were obtained:
Experiment in all cases: microbe, parasite or virus in culture
[1] = test system: SARS-CoV-2 (USA-WA1/2020 variant); format: cell-based
[2] = test system: SARS-CoV-2 (USA-WA1/2020 variant); format: cell-based; details: for EC50: Severe acute respiratory syndrome coronavirus 2, Vero C1008, 48 h, read-out: EC50: yield reduction assay for WA1/2020
[3] = test system: SARS-CoV-2 variant B.1.351; format: cell-based, SARS-CoV-2 B.1.351; details: for EC50: Severe acute respiratory syndrome coronavirus 2, Vero C1008, 96 h, 4 days, read-out: EC50 for CPE scoring-based assay for B.1.351
[4] = test system: SARS-CoV-2 variant B.1.351; format: cell-based, SARS-CoV-2 B.1.351
[5] = test system: SARS-CoV-2 variant B.1.1.7; details: for EC50: Severe acute respiratory syndrome coronavirus 2, Vero C1008, 168 h, read-out: EC50: viability restoration in infected cells for B.1.1.7
[6] = test system: SARS-CoV-2 variant B.1.1.7; format: cell-based, SARS-CoV-2 B.1.1.7; details: Severe acute respiratory syndrome coronavirus 2, Vero C1008, 96 h; 4 days; read-out: EC50 for CPE scoring-based assay for B.1.1.7
[7] = test system: SARS-CoV-2 variant B.1.351; format: cell-based, SARS-CoV-2 B.1.351; details: Severe acute respiratory syndrome coronavirus 2, Vero C1008, 168 h, read-out: EC50: viability restoration in infected cells for B.1.351
[8] = test system: SARS-CoV-2 variant B.1.1.7; format: cell-based, SARS-CoV-2 B.1.1.7
[9] = test system: SARS-CoV-2 (USA-WA1/2020 variant); format: cell-based; details: Severe acute respiratory syndrome coronavirus 2, Vero C1008, 96 h; 4 days; read-out: EC50: viability restoration in infected cells for WA1/2020
[10] = Severe acute respiratory syndrome coronavirus 2, Vero C1008, 96 h, 4 days, read-out: EC50 for CPE scoring-based assay for WA1/2020
[11] = Severe acute respiratory syndrome coronavirus 2, Vero C1008, read-out: EC50s, range over cytopathic effect and yield reduction assays

SMILES: CC(C)C[C@H](NC(=O)OCc1ccccc1)C(=O)N[C@@H](CC1CCNC1=O)C(O)S(=O)(=O)O (stereo partly drawn) [GC-376, reference compound]
- EC50 ([1]; 4 days, read-out: EC50 for CPE scoring-based assay for WA1/2020): 3.9 µM

SMILES: Oc1ccc([C@@H]2c3c(O)cc(O)cc3[C@@H]3c4c(cc(O)cc4[C@H]2[C@@H]2c4cc(O)cc5c4[C@@H](c4cc(O)cc(O)c4[C@H]2c2ccc(O)cc2)[C@H](c2ccc(O)cc2)O5)O[C@H]3c2ccc(O)cc2)cc1 [Hopeaphenol, (–)-hopeaphenol]
- % infected, Average ([2]; 1 μM): 29.2%
- % infected, Average ([2]; 3 μM): 23.0%
- % infected, Average ([2]; 10 μM): 18.7%
- % infected, Average ([2]; 30 μM): 11.5%
- % infected, Average ([2]; 50 μM): 3.6%
- EC50 [2]: 13.5 µM
- Fold improved activity against B.1.351 over USA-WA1/2020 (CPE EC50) [3]: 4.5 fold
- EC50 [3]: 2.3 µM
- % infected, Average ([4]; 3 μM): 20.6%
- % infected, Average ([4]; 10 μM): 11.6%
- % infected, Average ([4]; 20 μM): 9.9%
- % infected, Average ([4]; 50 μM): 0.1%
- EC50 ([4]; Severe acute respiratory syndrome coronavirus 2, Vero C1008, 48 h, read-out: EC50: yield reduction assay for B.1.351): 8.8 µM
- EC50 [1, 10]: 10.2 µM
- EC50 [1, 11]: 10.2 to 23.4 µM
- EC50 ([1]; Severe acute respiratory syndrome coronavirus 2, read-out: EC50s in infectious viral assays, range): 2.3 to 23.4 µM
- EC50 [5]: 7.8 µM
- EC50 [6]: 14.8 µM
- EC50 [7]: 7.5 µM
- % infected, Average ([8]; 3 μM): 12.1%
- % infected, Average ([8]; 10 μM): 10.4%
- % infected, Average ([8]; 20 μM): 6.7%
- % infected, Average ([8]; 50 μM): 0.0%
- EC50 ([8]; Severe acute respiratory syndrome coronavirus 2, Vero C1008, 48 h, read-out: EC50: yield reduction assay for B.1.1.7): 11.4 µM
- EC50 [9]: 23.4 µM

SMILES: CCC(CC)COC(=O)[C@H](C)N[P@](=O)(OC[C@H]1O[C@@](C#N)(c2ccc3c(N)ncnn23)[C@H](O)[C@@H]1O)Oc1ccccc1 [Remdesivir, remdesivir, reference compound]
- % infected, Average ([2]; 0.3 μM): 21.0%
- % infected, Average ([2]; 1 μM): 13.5%
- % infected, Average ([2]; 3 μM): 8.5%
- % infected, Average ([2]; 10 μM): 0.0%
- EC50 [2]: 1 µM
- EC50 [3]: 1.4 µM
- EC50 [1, 10]: 2.5 µM
- EC50 [1, 11]: 1 to 7.3 µM
- EC50 [5]: > 10 µM
- EC50 [6]: 1.5 µM
- EC50 [7]: > 10 µM
- EC50 [9]: 7.3 µM

SMILES: Oc1ccc(/C=C/c2cc(O)cc(O)c2)cc1 [Resveratrol, resveratrol, reference compound]
- EC50 [1, 10]: > 100 µM
- EC50 [9]: > 50 µM

SMILES: OC[C@H]1O[C@@H](Oc2cc3c4c(c2)[C@@H]([C@@H]2c5cc(O)cc6c5[C@@H](c5cc(O)cc(O)c5[C@H]2c2ccc(O)cc2)[C@H](c2ccc(O)cc2)O6)[C@H](c2ccc(O)cc2)c2c(O)cc(O)cc2[C@H]4[C@H](c2ccc(O)cc2)O3)[C@H](O)[C@@H](O)[C@@H]1O [Vatalbinoside A, vatalbinoside A]
- % infected, Average ([2]; 1 μM): 17.1%
- % infected, Average ([2]; 3 μM): 17.8%
- % infected, Average ([2]; 10 μM): 16.7%
- % infected, Average ([2]; 30 μM): 9.9%
- % infected, Average ([2]; 50 μM): 11.2%
- EC50 [2]: 19.1 µM
- EC50 [3]: 3.6 µM
- EC50 [1, 10]: 13.8 µM
- EC50 [5]: > 50 µM
- viability at 20 µM ([5]; Severe acute respiratory syndrome coronavirus 2, read-out: Restored viability in B.1.1.7-infected cells): ≤ 51.2%
- EC50 [6]: 4 µM
- EC50 [7]: 11.3 µM
- EC50 [9]: 18.8 µM

SMILES: Oc1ccc([C@@H]2c3c(O)cc(O)cc3[C@@H]3c4c(cc(O)c5c4[C@@H]2[C@H](c2ccc(O)cc2)[C@H]5c2cc(O)cc4c2[C@@H](c2cc(O)cc(O)c2)[C@H](c2ccc(O)cc2)O4)O[C@H]3c2ccc(O)cc2)cc1 [Vaticanol B, vaticanol B]
- % infected, Average ([2]; 10 μM): 30.0%
- % infected, Average ([2]; 30 μM): 26.8%
- % infected, Average ([2]; 50 μM): 16.9%
- EC50 [2]: > 50 µM
- EC50 [3]: 25.3 µM
- EC50 [1, 10]: 37 µM
- EC50 [5]: > 50 µM
- EC50 [6]: 32.4 µM
- EC50 [7]: > 50 µM
- EC50 [9]: > 50 µM
